Results on six molecules are retold here after patent US20250230193A1, “CYCLIC COMPOUND HAVING SELECTIVE KRAS INHIBITORY EFFECT ON HRAS AND NRAS” (CHUGAI SEIYAKU KABUSHIKI KAISHA, priority 2022, published 2025).

The structures appear in SMILES notation. Where a SMILES comes first, the peptide text is derived from it. Bridges are numbered along the chain shown (N, C = ends). [ ]: non-standard residue; d: D form. hPhe(3-Cl-4-CF3) = N[C@@H](CCc1ccc(C(F)(F)F)c(Cl)c1)C(=O)O; NPrPhe(4-CF3) = CCCN[C@@H](Cc1ccc(C(F)(F)F)cc1)C(=O)O; NMeGly(cPent) = CN[C@H](C(=O)O)C1CCCC1; Pro(4,4-F2) = O=C(O)[C@@H]1CC(F)(F)CN1; Hyp = O=C(O)[C@@H]1C[C@@H](O)CN1; NMeD = CN[C@@H](CC(=O)O)C(=O)O; NMeL = CN[C@@H](CC(C)C)C(=O)O; NMeA = CN[C@@H](C)C(=O)O; Ac5c = NC1(C(=O)O)CCCC1; Aze = O=C(O)[C@@H]1CCN1; Ac4c = NC1(C(=O)O)CCC1; Sar = CNCC(=O)O

Assay [1] has as its target GDP-bound HRAS wild-type protein (Homo sapiens, UniProt P01112). In words: Binding to HRAS by surface plasmon resonance (SPR), Single Cycle Kinetics. To be noted: KD ratio HRAS/KRAS, SPR. In general terms: SPR reads the build-up and loss of mass on a sensor chip optically.
The target of assay [2] is GDP-bound NRAS wild-type protein (Homo sapiens, UniProt P01111). The experiment in a line: Binding to NRAS by surface plasmon resonance (SPR), Single Cycle Kinetics. The conditions noted are these: KD ratio NRAS/KRAS, SPR.
GDP-bound NRAS wild-type protein, sequence (P01111 whole entry): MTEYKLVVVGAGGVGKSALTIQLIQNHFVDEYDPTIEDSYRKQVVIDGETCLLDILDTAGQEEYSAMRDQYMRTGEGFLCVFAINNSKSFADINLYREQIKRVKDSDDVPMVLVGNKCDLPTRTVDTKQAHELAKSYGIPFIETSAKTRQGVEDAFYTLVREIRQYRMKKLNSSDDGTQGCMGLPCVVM

GDP-bound HRAS wild-type protein, sequence (P01112 whole entry): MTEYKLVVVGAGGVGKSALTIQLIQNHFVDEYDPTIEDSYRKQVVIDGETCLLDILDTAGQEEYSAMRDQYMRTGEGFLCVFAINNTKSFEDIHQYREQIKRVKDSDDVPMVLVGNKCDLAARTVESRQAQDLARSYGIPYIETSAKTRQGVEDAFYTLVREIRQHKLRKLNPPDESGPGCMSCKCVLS

For `CCCN1C(=O)[C@@H]2CCN2C(=O)[C@H](C)N(C)C(=O)[C@H]([C@@H](C)CC)NC(=O)[C@H](CC(C)C)N(C)C(=O)C[C@@H](C(=O)N(C)C)N(C)C(=O)[C@H](C2CCCC2)N(C)C(=O)C2(CCCC2)NC(=O)[C@@H]2C[C@@H](OCC)CN2C(=O)[C@H](CCc2ccc(C(F)(F)F)c(Cl)c2)NC(=O)CN(C)C(=O)[C@@H]1Cc1ccc(C(F)(F)F)cc1` [PP0438] ([NMeL]I[NMeA][Aze][NPrPhe(4-CF3)][Sar][hPhe(3-Cl-4-CF3)][Hyp](Et)[Ac5c][NMeGly(cPent)][NMeD]-NMe2; lactam N-11), in assay [1], the “HRAS/KRAS (ratio of KD value with respect to GDP-bound HRAS wild-type protein to KD value with respect to KRAS)” value is “C (A compound having a KD ratio of 0.1 or more and less than 3 is denoted as C)”. Moreover, in assay [2], the “NRAS/KRAS (ratio of KD value with respect to GDP-bound NRAS wild-type protein to KD value with respect to KRAS)” value is “C (A compound having a KD ratio of 0.1 or more and less than 3 is denoted as C)”.
As to `CCCN1C(=O)[C@@H]2CCN2C(=O)CN(C)C(=O)[C@H]([C@@H](C)CC)NC(=O)[C@H](CC(C)C)N(C)C(=O)C[C@@H](C(=O)N(C)C)N(C)C(=O)[C@H](C2CCCC2)N(C)C(=O)C2(CCCC2)NC(=O)[C@@H]2CCCN2C(=O)[C@H](CCc2ccc(C(F)(F)F)c(Cl)c2)NC(=O)CN(C)C(=O)[C@@H]1Cc1ccc(C(F)(F)F)cc1` [PP0440] ([NMeL]I[Sar][Aze][NPrPhe(4-CF3)][Sar][hPhe(3-Cl-4-CF3)]P[Ac5c][NMeGly(cPent)][NMeD]-NMe2; lactam N-11), the “HRAS/KRAS (ratio of KD value with respect to GDP-bound HRAS wild-type protein to KD value with respect to KRAS)” value in assay [1] was “B (a compound having 3 or more and less than 10 is denoted as B)”. For the same molecule, the “NRAS/KRAS (ratio of KD value with respect to GDP-bound NRAS wild-type protein to KD value with respect to KRAS)” value in assay [2] was “C (A compound having a KD ratio of 0.1 or more and less than 3 is denoted as C)”.
Take `CCCN1C(=O)[C@@H]2CCN2C(=O)CN(C)C(=O)[C@H]([C@@H](C)CC)NC(=O)[C@H](CC(C)C)N(C)C(=O)C[C@@H](C(=O)N(C)C)N(C)C(=O)[C@H](C2CCCC2)N(C)C(=O)C2(CCC2)NC(=O)[C@@H]2CCCN2C(=O)[C@H](CCc2ccc(C(F)(F)F)c(Cl)c2)NC(=O)CN(C)C(=O)[C@@H]1Cc1ccc(C(F)(F)F)cc1` [PP0441] ([NMeL]I[Sar][Aze][NPrPhe(4-CF3)][Sar][hPhe(3-Cl-4-CF3)]P[Ac4c][NMeGly(cPent)][NMeD]-NMe2; lactam N-11): the “HRAS/KRAS (ratio of KD value with respect to GDP-bound HRAS wild-type protein to KD value with respect to KRAS)” value in assay [1] is “C (A compound having a KD ratio of 0.1 or more and less than 3 is denoted as C)”. The “NRAS/KRAS (ratio of KD value with respect to GDP-bound NRAS wild-type protein to KD value with respect to KRAS)” value in assay [2] is “C (A compound having a KD ratio of 0.1 or more and less than 3 is denoted as C)”.
For `CCCN1C(=O)[C@@H]2CCN2C(=O)CN(C)C(=O)[C@H]([C@@H](C)CC)NC(=O)[C@H](CC(C)C)N(C)C(=O)C[C@@H](C(=O)N(C)C)N(C)C(=O)[C@H](C2CCCC2)N(C)C(=O)C2(CCCC2)NC(=O)[C@@H]2CC(F)(F)CN2C(=O)[C@H](CCc2ccc(C(F)(F)F)c(Cl)c2)NC(=O)CN(C)C(=O)[C@@H]1Cc1ccc(C(F)(F)F)cc1` [PP0442] ([NMeL]I[Sar][Aze][NPrPhe(4-CF3)][Sar][hPhe(3-Cl-4-CF3)][Pro(4,4-F2)][Ac5c][NMeGly(cPent)][NMeD]-NMe2; lactam N-11), the “HRAS/KRAS (ratio of KD value with respect to GDP-bound HRAS wild-type protein to KD value with respect to KRAS)” value in assay [1] was “C (A compound having a KD ratio of 0.1 or more and less than 3 is denoted as C)”. In assay [2], the “NRAS/KRAS (ratio of KD value with respect to GDP-bound NRAS wild-type protein to KD value with respect to KRAS)” value was “C (A compound having a KD ratio of 0.1 or more and less than 3 is denoted as C)”.
Take `CCCN1C(=O)[C@@H]2CCN2C(=O)CN(C)C(=O)[C@H]([C@@H](C)CC)NC(=O)[C@H](CC(C)C)N(C)C(=O)C[C@@H](C(=O)N(C)C)N(C)C(=O)[C@H](C2CCCC2)N(C)C(=O)C2(CCC2)NC(=O)[C@@H]2CC(F)(F)CN2C(=O)[C@H](CCc2ccc(C(F)(F)F)c(Cl)c2)NC(=O)CN(C)C(=O)[C@@H]1Cc1ccc(C(F)(F)F)cc1` [PP0443] ([NMeL]I[Sar][Aze][NPrPhe(4-CF3)][Sar][hPhe(3-Cl-4-CF3)][Pro(4,4-F2)][Ac4c][NMeGly(cPent)][NMeD]-NMe2; lactam N-11): the “HRAS/KRAS (ratio of KD value with respect to GDP-bound HRAS wild-type protein to KD value with respect to KRAS)” value in assay [1] is “C (A compound having a KD ratio of 0.1 or more and less than 3 is denoted as C)”. Besides, the “NRAS/KRAS (ratio of KD value with respect to GDP-bound NRAS wild-type protein to KD value with respect to KRAS)” value in assay [2] is “C (A compound having a KD ratio of 0.1 or more and less than 3 is denoted as C)”.
In the case of `CCCN1C(=O)[C@@H]2CCN2C(=O)CN(C)C(=O)[C@H]([C@@H](C)CC)NC(=O)[C@H](CC(C)C)N(C)C(=O)C[C@@H](C(=O)N(C)C)N(C)C(=O)[C@H](C2CCCC2)N(C)C(=O)C2(CCCC2)NC(=O)[C@@H]2C[C@@H](OCC)CN2C(=O)[C@H](CCc2ccc(C(F)(F)F)c(Cl)c2)NC(=O)CN(C)C(=O)[C@@H]1Cc1ccc(C(F)(F)F)cc1` [PP0444] ([NMeL]I[Sar][Aze][NPrPhe(4-CF3)][Sar][hPhe(3-Cl-4-CF3)][Hyp](Et)[Ac5c][NMeGly(cPent)][NMeD]-NMe2; lactam N-11), in assay [1], the “HRAS/KRAS (ratio of KD value with respect to GDP-bound HRAS wild-type protein to KD value with respect to KRAS)” value was “C (A compound having a KD ratio of 0.1 or more and less than 3 is denoted as C)”. Besides, in assay [2], the “NRAS/KRAS (ratio of KD value with respect to GDP-bound NRAS wild-type protein to KD value with respect to KRAS)” value was “C (A compound having a KD ratio of 0.1 or more and less than 3 is denoted as C)”.
